≈ marks a conversion by molar mass, not a printed value. Where “and” joins values, the source holds several entries; their conditions need not be identical. Identical values can stand only once. Like-named read-outs stand apart in the source and are kept apart here.
What was measured:
Type in all cases: cell-based
Mycobacterium fortuitum = assay: Anti-mycobacterial MIC; settings: for MIC: Mycolicibacterium fortuitum
Mycobacterium marinum = assay: Anti-mycobacterial MIC; settings: read-out: Minimum inhibitory concentration (MIC), observed
Mycobacterium bovis = assay: microbe, parasite or virus in culture; settings: for MIC lower than that of the standard reference (INH): Mycobacterium bovis, MIC vs INH; for MIC: Mycobacterium tuberculosis variant bovis, read-out: Minimum inhibitory concentration (MIC)
Proteus vulgaris = assay: Antibacterial MIC, aerobic bacteria, standard technique; settings: read-out: Minimum inhibitory concentration (MIC)
From the text: (§1) Antibacterial properties were investigated for the synthesized compounds against a variety of Gram-positive (Staphylococcus aureus, Enterococcus faecalis) and Gram-negative (Klebsiella pneumonia, Proteus vulgaris, Pseudomonas aeruginosa) bacteria utilizing the standard technique.

Enterococcus faecalis = assay: as above; settings: read-out: Minimum inhibitory concentration (MIC)
From the text: as §1

Klebsiella pneumonia = assay: as above; settings: Klebsiella pneumoniae, read-out: Minimum inhibitory concentration (MIC)
From the text: as §1

Staphylococcus aureus = assay: as above; settings: read-out: Minimum inhibitory concentration (MIC)
From the text: as §1

[1] = read-out: Minimum inhibitory concentration (MIC)
[2] = read-out: Minimum inhibitory concentration (MIC), observed

| Structure (SMILES) | MIC (Mycobacterium fortuitum; [1]) [mg/mL] | MIC (Mycobacterium marinum) [mM] | other results |
| --- | --- | --- | --- |
| CC(C)[C@H](NC(=O)c1cnccn1)C(=O)O | > 20 |  |  |
| CSCC[C@H](NC(=O)c1cnccn1)C(=O)O | > 20 |  |  |
| O=C(N[C@@H](Cc1ccccc1)C(=O)O)c1cnccn1 | > 20 |  |  |
| O=C(NC(Cc1ccccc1)C(=O)O)c1cnccn1 (stereo not shown) | > 20 |  |  |
| O=C(N[C@@H](Cc1c[nH]c2ccccc12)C(=O)O)c1cnccn1 | > 20 |  |  |
| O=C(NNC(=O)C(Cc1ccccc1)NC(=O)c1cnccn1)c1ccncc1 (stereo not shown) | 10 |  |  |
| O=C(NNC(=O)C(Cc1ccccc1)NC(=O)c1cnccn1)c1ccncc1 (racemic) [PZA-DL-Phe-INH] |  |  | Potency relative to the standard reference (INH) (Mycobacterium fortuitum; MIC vs INH): about 5.6 folds |
| NNC(=O)c1ccncc1 [INH, isoniazide, reference compound] |  | 72.9 (≈ 10 mg/mL) |  |
| O=C(NNC(=O)c1ccncc1)c1ccncc1 [Iso-INH] |  | 82.6 (≈ 20 mg/mL) | MIC lower than that of the standard reference (INH) (Mycobacterium bovis): about 1.8 folds; MIC (Mycobacterium fortuitum; [2]): 82.6 mM |
| NC(=O)c1cnccn1 [PZA, Pyrazinamide, reference compound] |  | 81.2 (≈ 10 mg/mL) | MIC (Mycobacterium fortuitum; [2]): 81.2 mM |
| O=C(NNC(=O)c1cnccn1)c1ccncc1 [PZA-INH] |  | 41.1 (≈ 10 mg/mL) | MIC lower than that of the standard reference (INH) (Mycobacterium bovis): about 1.8 folds; MIC (Mycobacterium fortuitum; [2]): 41.1 mM |
| CCC(C)C(NC(=O)c1cnccn1)C(=O)NNC(=O)c1ccncc1 (stereo not shown) [PZA-Ile-INH] |  | 56.1 (≈ 20 mg/mL) | MIC (Mycobacterium fortuitum; [2]): 56.1 mM |
| CC(C)C[C@H](NC(=O)c1cnccn1)C(=O)NNC(=O)c1ccncc1 [PZA-Leu-INH] |  | 56.1 (≈ 20 mg/mL) | MIC (Mycobacterium fortuitum; [2]): 56.1 mM |
| CC(C)C[C@H](NC(=O)c1cnccn1)C(=O)O [PZA-Leu-OH] |  | 84.3 (≈ 20 mg/mL) | MIC (Mycobacterium fortuitum; [2]): 84.3 mM |
| CSCC[C@H](NC(=O)c1cnccn1)C(=O)NNC(=O)c1ccncc1 [PZA-Met-INH] |  | 26.7 (≈ 10 mg/mL) | MIC (Mycobacterium fortuitum; [2]): 53.4 mM |
| O=C(NNC(=O)[C@H](Cc1ccccc1)NC(=O)c1cnccn1)c1ccncc1 [PZA-Phe-INH] |  | 51.2 (≈ 20 mg/mL) | MIC (Mycobacterium fortuitum; [2]): 51.2 mM |
| O=C(NNC(=O)[C@H](Cc1c[nH]c2ccccc12)NC(=O)c1cnccn1)c1ccncc1 [PZA-Trp-INH] |  | 46.6 (≈ 20 mg/mL) | MIC (Mycobacterium fortuitum; [2]): 46.6 mM |

| Structure (SMILES) | MIC (Mycobacterium fortuitum; [1]) [mg/mL] | MIC (Mycobacterium marinum) [mM] | other results |
| --- | --- | --- | --- |
| CC(C)[C@H](NC(=O)c1cnccn1)C(=O)NNC(=O)c1ccncc1 [PZA-Val-INH] |  | 58.4 (≈ 20 mg/mL) | MIC (Mycobacterium fortuitum; [2]): 58.4 mM |
| CCC(C)C(NC(=O)c1cnccn1)C(=O)O (stereo not shown) [drawing 30] |  |  | MIC (Proteus vulgaris): 0.06 µg/mL (≈ 0.253 µM); MIC (Enterococcus faecalis): 0.03 µg/mL; MIC (Klebsiella pneumonia): 0.008 mg/mL (≈ 33.7 µM) |
| CC(C)[C@H](NC(=O)c1cnccn1)C(=O)NNC(=O)c1ccncc1 [drawing 36] |  |  | MIC (Enterococcus faecalis): 0.00035 mM |
| CCC(C)C(NC(=O)c1cnccn1)C(=O)NNC(=O)c1ccncc1 (stereo not shown) [drawing 37] |  |  | MIC (Proteus vulgaris): 0.06 µg/mL (≈ 0.168 µM); MIC (Enterococcus faecalis): 0.03 µg/mL and 0.08 µM; MIC (Klebsiella pneumonia): 0.008 mg/mL (≈ 22.4 µM) |
| O=C(NNC(=O)[C@H](Cc1c[nH]c2ccccc12)NC(=O)c1cnccn1)c1ccncc1 [drawing 41] |  |  | MIC (Staphylococcus aureus): 3.73 mM (≈ 1.6 mg/mL) |
| NC(=O)c1cnccn1 [drawing 44] | 10 |  |  |
| NNC(=O)c1ccncc1 [drawing 45] | 20 |  |  |
| CC(C)C[C@H](NC(=O)c1cnccn1)C(=O)O [drawing 46] | 20 |  |  |
| CCC(C)C(NC(=O)c1cnccn1)C(=O)O (stereo not shown) [drawing 48] | > 20 |  | MIC (Mycobacterium bovis): > 20 mg/mL |
| CC(C)C[C@H](NC(=O)c1cnccn1)C(=O)NNC(=O)c1ccncc1 [drawing 53] | 20 |  |  |
| CC(C)[C@H](NC(=O)c1cnccn1)C(=O)NNC(=O)c1ccncc1 [drawing 54] | 20 |  |  |
| CCC(C)C(NC(=O)c1cnccn1)C(=O)NNC(=O)c1ccncc1 (stereo not shown) [drawing 55] | 20 |  | MIC (Mycobacterium bovis): > 20 mg/mL |
| CSCC[C@H](NC(=O)c1cnccn1)C(=O)NNC(=O)c1ccncc1 [drawing 56] | 20 |  |  |
| O=C(NNC(=O)[C@H](Cc1ccccc1)NC(=O)c1cnccn1)c1ccncc1 [drawing 57] | 20 |  |  |
| O=C(NNC(=O)[C@H](Cc1c[nH]c2ccccc12)NC(=O)c1cnccn1)c1ccncc1 [drawing 59] | 20 |  |  |
| O=C(NNC(=O)c1cnccn1)c1ccncc1 [drawing 60] | 10 |  |  |
| O=C(NNC(=O)c1ccncc1)c1ccncc1 [drawing 61] | 20 |  |  |

From US11584725B2, “Pyrazinoic acid conjugates and hybrid conjugates” (Augusta University Research Institute, Inc., priority 2018, dated 2023)
